Test in all cases: Glasshouse herbicide test, pre- and post-emergence, percentage damage
What all share (type): in vivo

For assay [1], the system named is Alopecurus myosuroides (ALOMY). The conditions noted are these: 250 g/h, evaluated after 13 days, percentage damage on five point scale; for ALOMY POST: post-emergence; for ALOMY PRE: pre-emergence. The protocol: (§1) Seeds of a variety of test species are sown in standard soil in pots (Lolium perenne (LOLPE), Setaria faberi (SETFA), Alopecurus myosuroides (ALOMY), Echinochloa crus-galli (ECHCG), Avena fatua (AVEFA)). After cultivation for one day (pre-emergence) or after 8 days cultivation (post-emergence) under controlled conditions in a glasshouse (at 24/16° C., day/night; 14 hours light; 65% humidity), the plants are sprayed with an aqueous spray solution derived from the formulation of the technical active ingredient in acetone/water (50:50) solution containing 0.5% Tween 20 (polyoxyethelyene sorbitan monolaurate, CAS RN 9005-64-5). Compounds are applied at […]. The test plants are then grown in a glasshouse under controlled conditions in a glasshouse (at 24/16° C., day/night; 14 hours light; 65% humidity) and watered twice daily. After 13 days for pre and post-emergence, the test is evaluated for the percentage damage caused to the plant. The biological activities are shown in the following table on a five point scale (5=80-100%; 4=60-79%; 3=40-59%; 2=20-39%; 1=0-19%).

For the next assay, the system named is Lolium perenne (LOLPE). The conditions noted are these: 250 g/h, evaluated after 13 days, percentage damage on five point scale; for LOLPE POST: post-emergence; for LOLPE PRE: pre-emergence. The protocol: as §1
A further assay deals with Avena fatua (AVEFA). Conditions: 250 g/h, evaluated after 13 days, percentage damage on five point scale; for AVEFA POST: post-emergence; for AVEFA PRE: pre-emergence. The protocol: as §1
For assay [2], the system named is Echinochloa crus-galli (ECHCG). The conditions noted are these: 250 g/h, evaluated after 13 days, percentage damage on five point scale; for ECHCG POST: post-emergence; for ECHCG PRE: pre-emergence. On the procedure: as §1
In the next assay the test system is Setaria faberi (SETFA). Conditions: 250 g/h, evaluated after 13 days, percentage damage on five point scale; for SETFA POST: post-emergence; for SETFA PRE: pre-emergence. The protocol:
as §1

`Cc1cc(-c2ccc(C#N)cn2)cc(C)c1C1C(=O)CC2(CCN(C(=O)CC#N)CC2)CC1=O` [Compound A44]: in assay [1], the “ALOMY POST” value is reported as 5 (5=80-100%) and the “ALOMY PRE” value is reported as 5 (5=80-100%). Further, in the assay on Lolium perenne (LOLPE), the “LOLPE POST” value is listed as 5 (5=80-100%) and the “LOLPE PRE” value was 3 (3=40-59%). Also, in the assay with Avena fatua (AVEFA), the “AVEFA POST” value was 5 (5=80-100%) and the “AVEFA PRE” value is 3 (3=40-59%). Moreover, in assay [2], the “ECHCG POST” value is listed as 4 (4=60-79%) and the “ECHCG PRE” value is 5 (5=80-100%). Moreover, in the assay on Setaria faberi (SETFA), the “SETFA POST” value was 5 (5=80-100%) and the “SETFA PRE” value is listed as 5 (5=80-100%).

On to `CC(=O)N1CCC2(CC1)CC(=O)C(c1c(C)cc(-c3ccc(Cl)cn3)cc1C)C(=O)C2` [Compound A45], for which, in assay [1], the “ALOMY POST” value is 5 (5=80-100%) and the “ALOMY PRE” value is on record as 5 (5=80-100%). For the same compound, in the assay with Lolium perenne (LOLPE), the “LOLPE POST” value is recorded as 5 (5=80-100%) and the “LOLPE PRE” value is reported as 5 (5=80-100%). Also, in the assay on Avena fatua (AVEFA), the “AVEFA POST” value is reported as 5 (5=80-100%) and the “AVEFA PRE” value was 5 (5=80-100%). In addition, in assay [2], the “ECHCG POST” value is listed as 5 (5=80-100%) and the “ECHCG PRE” value is recorded as 5 (5=80-100%). Moreover, in the assay on Setaria faberi (SETFA), the “SETFA POST” value is given as 5 (5=80-100%) and the “SETFA PRE” value is given as 5 (5=80-100%).

`COc1cc(-c2ncc(F)cn2)cc(OC)c1C1C(=O)CC2(CCN(OC)CC2)CC1=O` [Compound A8]: in assay [1], the “ALOMY POST” value is 5 (5=80-100%) and the “ALOMY PRE” value is 5 (5=80-100%). In the assay on Lolium perenne (LOLPE), the “LOLPE POST” value was 5 (5=80-100%) and the “LOLPE PRE” value is on record as 5 (5=80-100%). Further, in the assay with Avena fatua (AVEFA), the “AVEFA POST” value is 5 (5=80-100%) and the “AVEFA PRE” value is on record as 5 (5=80-100%). Also, in assay [2], the “ECHCG POST” value is reported as 5 (5=80-100%) and the “ECHCG PRE” value is listed as 5 (5=80-100%). Besides, in the assay with Setaria faberi (SETFA), the “SETFA POST” value is 5 (5=80-100%) and the “SETFA PRE” value was 5 (5=80-100%).

Turning to `Cc1cc(-c2ccc(C#N)cn2)cc(C)c1C1C(=O)CC2(CCN(C(=O)C3CC3)CC2)CC1=O` [Compound A28], in assay [1], the “ALOMY POST” value is listed as 5 (5=80-100%) and the “ALOMY PRE” value is 5 (5=80-100%). Also, in the assay with Lolium perenne (LOLPE), the “LOLPE POST” value was 5 (5=80-100%) and the “LOLPE PRE” value is given as 5 (5=80-100%). In the assay on Avena fatua (AVEFA), the “AVEFA POST” value is listed as 5 (5=80-100%) and the “AVEFA PRE” value is listed as 5 (5=80-100%). In assay [2], the “ECHCG POST” value is 5 (5=80-100%) and the “ECHCG PRE” value is 5 (5=80-100%). Also, in the assay with Setaria faberi (SETFA), the “SETFA POST” value is recorded as 5 (5=80-100%) and the “SETFA PRE” value is on record as 5 (5=80-100%).

`CCS(=O)(=O)N1CCC2(CC1)CC(=O)C(c1c(C)cc(-c3ccc(F)cc3)cc1C)C(=O)C2` [Compound A53]: the “ALOMY PRE” value in assay [1] is given as 5 (5=80-100%). Also, in the assay with Lolium perenne (LOLPE), the “LOLPE POST” value is 5 (5=80-100%) and the “LOLPE PRE” value was 5 (5=80-100%). For the same compound, in the assay on Avena fatua (AVEFA), the “AVEFA POST” value is 5 (5=80-100%) and the “AVEFA PRE” value is listed as 4 (4=60-79%). In assay [2], the “ECHCG POST” value is on record as 3 (3=40-59%) and the “ECHCG PRE” value was 5 (5=80-100%). Further, in the assay on Setaria faberi (SETFA), the “SETFA POST” value was 5 (5=80-100%) and the “SETFA PRE” value is reported as 5 (5=80-100%).

For `COCC(=O)N1CCC2(CC1)CC(=O)C(c1c(C)cc(-c3ccc(C#N)cn3)cc1C)C(=O)C2` [Compound A25], in assay [1], the “ALOMY POST” value was 5 (5=80-100%) and the “ALOMY PRE” value is 5 (5=80-100%). In the assay with Lolium perenne (LOLPE), the “LOLPE POST” value is on record as 5 (5=80-100%) and the “LOLPE PRE” value is given as 5 (5=80-100%). Besides, in the assay on Avena fatua (AVEFA), the “AVEFA POST” value was 5 (5=80-100%) and the “AVEFA PRE” value is 5 (5=80-100%). In assay [2], the “ECHCG POST” value is on record as 5 (5=80-100%) and the “ECHCG PRE” value is listed as 5 (5=80-100%). Also, in the assay with Setaria faberi (SETFA), the “SETFA POST” value is given as 5 (5=80-100%) and the “SETFA PRE” value is reported as 5 (5=80-100%).

Take `Cc1cc(-c2ccc(F)cc2)cc(C)c1C1C(=O)CC2(CCN(C(=O)C3CC3)CC2)CC1=O` [Compound A59]: in assay [1], the “ALOMY PRE” value was 5 (5=80-100%). In the assay on Lolium perenne (LOLPE), the “LOLPE POST” value is 5 (5=80-100%) and the “LOLPE PRE” value is recorded as 5 (5=80-100%). Besides, in the assay with Avena fatua (AVEFA), the “AVEFA POST” value was 5 (5=80-100%) and the “AVEFA PRE” value is 5 (5=80-100%). In assay [2], the “ECHCG POST” value was 5 (5=80-100%) and the “ECHCG PRE” value is recorded as 5 (5=80-100%). Besides, in the assay on Setaria faberi (SETFA), the “SETFA POST” value was 5 (5=80-100%) and the “SETFA PRE” value is recorded as 5 (5=80-100%).

With `CC(=O)N1CCC2(CC1)CC(=O)C(c1c(C)cc(-c3ccc(F)cc3)cc1C)C(=O)C2` [Compound A12], in assay [1], the “ALOMY POST” value is recorded as 5 (5=80-100%) and the “ALOMY PRE” value is given as 5 (5=80-100%). Moreover, in the assay on Lolium perenne (LOLPE), the “LOLPE POST” value is 5 (5=80-100%) and the “LOLPE PRE” value is recorded as 5 (5=80-100%). In the assay on Avena fatua (AVEFA), the “AVEFA POST” value is 5 (5=80-100%) and the “AVEFA PRE” value is 4 (4=60-79%). For the same compound, in assay [2], the “ECHCG POST” value was 5 (5=80-100%) and the “ECHCG PRE” value is given as 5 (5=80-100%). Also, in the assay on Setaria faberi (SETFA), the “SETFA POST” value is 5 (5=80-100%) and the “SETFA PRE” value was 5 (5=80-100%).

Turning to `CON1CCC2(CC1)CC(=O)C(c1c(C)cc(-c3ncc(Cl)cn3)cc1C)C(=O)C2` [Compound A1], in assay [1], the “ALOMY POST” value is listed as 5 (5=80-100%) and the “ALOMY PRE” value is given as 5 (5=80-100%). In the assay on Lolium perenne (LOLPE), the “LOLPE POST” value is on record as 5 (5=80-100%) and the “LOLPE PRE” value was 5 (5=80-100%). Also, in the assay on Avena fatua (AVEFA), the “AVEFA POST” value was 5 (5=80-100%) and the “AVEFA PRE” value was 5 (5=80-100%). Moreover, in assay [2], the “ECHCG POST” value is listed as 5 (5=80-100%) and the “ECHCG PRE” value is listed as 5 (5=80-100%). Also, in the assay with Setaria faberi (SETFA), the “SETFA POST” value is 5 (5=80-100%) and the “SETFA PRE” value was 5 (5=80-100%).

`Cc1cc(-c2ccc(F)cc2)cc(C)c1C1C(=O)CC2(CCN(C(=O)c3ccccn3)CC2)CC1=O` [Compound A55]: the “ALOMY PRE” value in assay [1] is 5 (5=80-100%). In the assay on Lolium perenne (LOLPE), the “LOLPE POST” value is reported as 5 (5=80-100%) and the “LOLPE PRE” value was 5 (5=80-100%). In addition, in the assay on Avena fatua (AVEFA), the “AVEFA POST” value is given as 5 (5=80-100%) and the “AVEFA PRE” value is on record as 5 (5=80-100%). In assay [2], the “ECHCG POST” value is recorded as 5 (5=80-100%) and the “ECHCG PRE” value was 5 (5=80-100%). In the assay on Setaria faberi (SETFA), the “SETFA POST” value is reported as 5 (5=80-100%) and the “SETFA PRE” value was 5 (5=80-100%).

As to `COCC(=O)N1CCC2(CC1)CC(=O)C(c1c(C)cc(-c3ncc(F)cn3)cc1C)C(=O)C2` [Compound A35], in assay [1], the “ALOMY POST” value was 5 (5=80-100%) and the “ALOMY PRE” value is on record as 5 (5=80-100%). Moreover, in the assay with Lolium perenne (LOLPE), the “LOLPE POST” value was 5 (5=80-100%) and the “LOLPE PRE” value is reported as 5 (5=80-100%). In addition, in the assay with Avena fatua (AVEFA), the “AVEFA POST” value is on record as 5 (5=80-100%) and the “AVEFA PRE” value is on record as 5 (5=80-100%). In addition, in assay [2], the “ECHCG POST” value is on record as 5 (5=80-100%) and the “ECHCG PRE” value is reported as 5 (5=80-100%). In addition, in the assay with Setaria faberi (SETFA), the “SETFA POST” value is recorded as 5 (5=80-100%) and the “SETFA PRE” value was 5 (5=80-100%).

`COc1cc(-c2ncc(F)cn2)cc(C)c1C1C(=O)CC2(CCN(C(C)=O)CC2)CC1=O` [Compound A17]: in assay [1], the “ALOMY POST” value was 5 (5=80-100%) and the “ALOMY PRE” value is listed as 5 (5=80-100%). Moreover, in the assay with Lolium perenne (LOLPE), the “LOLPE POST” value is listed as 5 (5=80-100%) and the “LOLPE PRE” value is 5 (5=80-100%). Moreover, in the assay with Avena fatua (AVEFA), the “AVEFA POST” value is reported as 5 (5=80-100%) and the “AVEFA PRE” value was 5 (5=80-100%). Also, in assay [2], the “ECHCG POST” value is given as 5 (5=80-100%) and the “ECHCG PRE” value is 5 (5=80-100%). Moreover, in the assay on Setaria faberi (SETFA), the “SETFA POST” value is reported as 5 (5=80-100%) and the “SETFA PRE” value is 5 (5=80-100%).

Source of the values: patent publication US11980188B2, “Spiro cyclohexanedione derivates as herbicides” (SYNGENTA PARTICIPATIONS AG, priority 2018, dated 2024).
